Experimental data from patent US10202361B2, “Pyridazinones as herbicides” (E I DU PONT DE NEMOURS AND COMPANY, priority 2014, dated 2019).
Where two headings read alike, the source gives them in different places.

How the values were obtained:
Assay in all cases: Test C pre-/postemergence greenhouse herbicide test
Assay type in all cases: in vivo
[1] = tested on: blackgrass (Alopecurus myosuroides); settings: for pest or weed control at 31 g/ha: 31 g ai/ha; for pest or weed control at 62 g/ha: 62 g ai/ha; for Plant response rating, Blackgrass: visual rating on scale 0 (no effect) to 100 (complete control), 13 to 15 d
Procedure, shortened: (§1)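 Seeds in loam–sand blend sprayed preemergence, and 1- to 4-leaf plants (2–18 cm) sprayed postemergence, with compounds in non-phytotoxic solvent plus surfactant. Visual rating versus controls after 13–15 d in greenhouse, 0 (no effect) to 100 (complete control).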

corn (Zea mays) = settings: for plant injury at 31 g/ha: 31 g ai/ha; for plant injury at 62 g/ha: 62 g ai/ha; for Plant response rating, Corn: visual rating on scale 0 (no effect) to 100 (complete control), 13 to 15 d
Procedure, shortened: as §1

[2] = tested on: crabgrass, Large (large crabgrass, Digitaria sanguinalis); settings: for pest or weed control at 31 g/ha: 31 g ai/ha; for pest or weed control at 62 g/ha: 62 g ai/ha; for Plant response rating, Crabgrass, Large: visual rating on scale 0 (no effect) to 100 (complete control), 13 to 15 d
Procedure, shortened: as §1

[3] = tested on: foxtail, giant (giant foxtail, Setaria faberii); settings: for pest or weed control at 31 g/ha: 31 g ai/ha; for pest or weed control at 62 g/ha: 62 g ai/ha; for Plant response rating, Foxtail, Giant: visual rating on scale 0 (no effect) to 100 (complete control), 13 to 15 d
Procedure, shortened: as §1

[4] = tested on: lambsquarters (Chenopodium album); settings: Postemergence
Procedure, shortened: as §1

[5] = tested on: nutsedge, yellow (yellow nutsedge, Cyperus esculentus); settings: for pest or weed control at 31 g/ha: 31 g ai/ha; for pest or weed control at 62 g/ha: 62 g ai/ha; for Plant response rating, Nutsedge, Yellow: visual rating on scale 0 (no effect) to 100 (complete control), 13 to 15 d
Procedure, shortened: as §1

[6] = tested on: oilseed rape (Brassica napus); settings: for Plant response rating: Oilseed Rape; for Plant response rating, Oilseed Rape: visual rating on scale 0 (no effect) to 100 (complete control), 13 to 15 d
Procedure, shortened: as §1

[7] = tested on: pigweed (Amaranthus retroflexus); settings: for pest or weed control at 31 g/ha: 31 g ai/ha; for pest or weed control at 62 g/ha: 62 g ai/ha; for Plant response rating, Pigweed: visual rating on scale 0 (no effect) to 100 (complete control), 13 to 15 d
Procedure, shortened: as §1

[8] = tested on: ryegrass, Italian (Italian ryegrass, Lolium multiflorum); settings: for pest or weed control at 31 g/ha: 31 g ai/ha; for pest or weed control at 62 g/ha: 62 g ai/ha; for Plant response rating, Ryegrass, Italian: visual rating on scale 0 (no effect) to 100 (complete control), 13 to 15 d
Procedure, shortened: as §1

soybean (Glycine max) = settings: for plant injury at 62 g/ha: 62 g ai/ha; for Plant response rating, Soybean: visual rating on scale 0 (no effect) to 100 (complete control), 13 to 15 d
Procedure, shortened: as §1

[9] = tested on: velvetleaf (Abutilon theophrasti); settings: for pest or weed control at 62 g/ha: 62 g ai/ha; for Plant response rating, Velvetleaf: visual rating on scale 0 (no effect) to 100 (complete control), 13 to 15 d
Procedure, shortened: as §1

[10] = tested on: morningglory (Ipomoea coccinea); settings: Preemergence; for Plant response rating: Morningglory; for Plant response rating, Morningglory: visual rating on scale 0 (no effect) to 100 (complete control), 13 to 15 d
Procedure, shortened: as §1

[11] = Alopecurus myosuroides, post-emergence, Blackgrass, Postemergence, read-out: Plant response rating
[12] = Zea mays, post-emergence, Corn, Postemergence, read-out: Plant response rating
[13] = Digitaria sanguinalis, post-emergence, Crabgrass, Large, Postemergence, read-out: Plant response rating
[14] = Setaria faberi, post-emergence, Foxtail, Giant, Postemergence, read-out: Plant response rating
[15] = Cyperus, post-emergence, Nutsedge, Yellow, Postemergence, read-out: Plant response rating
[16] = Amaranthus retroflexus, post-emergence, Pigweed, Postemergence, read-out: Plant response rating
[17] = Lolium multiflorum, post-emergence, Ryegrass, Italian, Postemergence, read-out: Plant response rating
[18] = Alopecurus myosuroides, pre-emergence, Blackgrass, Preemergence, read-out: Plant response rating
[19] = Zea mays, pre-emergence, Corn, Preemergence, read-out: Plant response rating
[20] = Digitaria sanguinalis, pre-emergence, Crabgrass, Large, Preemergence, read-out: Plant response rating
[21] = Setaria faberi, pre-emergence, Foxtail, Giant, Preemergence, read-out: Plant response rating
[22] = Cyperus, pre-emergence, Nutsedge, Yellow, Preemergence, read-out: Plant response rating
[23] = Amaranthus retroflexus, pre-emergence, Pigweed, Preemergence, read-out: Plant response rating
[24] = Lolium multiflorum, pre-emergence, Ryegrass, Italian, Preemergence, read-out: Plant response rating

Cc1cc(Oc2ccnc(C(F)(F)F)c2)nn(-c2ccc(C(F)(F)F)cc2)c1=O [Compound 6, 4-methyl-2-[4-(trifluoromethyl)phenyl]-6-[[2-(trifluoromethyl)-4-pyridinyl]oxy]-3(2H)-pyridazinone]
pest or weed control at 31 g/ha [1, 11]: 30%
pest or weed control at 62 g/ha [1, 11]: 35%
pest or weed control at 125 g/ha ([1]; Alopecurus myosuroides, post-emergence, Blackgrass, Postemergence, 125 g ai/ha, read-out: Plant response rating): 35%
pest or weed control at 250 g/ha ([1]; Alopecurus myosuroides, post-emergence, Blackgrass, Postemergence, 250 g ai/ha, read-out: Plant response rating): 50%
plant injury at 31 g/ha (corn (Zea mays); [12]): 15%
plant injury at 62 g/ha (corn (Zea mays); [12]): 25%
plant injury at 125 g/ha (corn (Zea mays); Zea mays, post-emergence, Corn, Postemergence, 125 g ai/ha, read-out: Plant response rating): 25%
plant injury at 250 g/ha (corn (Zea mays); Zea mays, post-emergence, Corn, Postemergence, 250 g ai/ha, read-out: Plant response rating): 35%
pest or weed control at 31 g/ha [2, 13]: 10%
pest or weed control at 62 g/ha [2, 13]: 20%
pest or weed control at 125 g/ha ([2]; Digitaria sanguinalis, post-emergence, Crabgrass, Large, Postemergence, 125 g ai/ha, read-out: Plant response rating): 30%
pest or weed control at 250 g/ha ([2]; Digitaria sanguinalis, post-emergence, Crabgrass, Large, Postemergence, 250 g ai/ha, read-out: Plant response rating): 35%
pest or weed control at 31 g/ha [3, 14]: 25%
pest or weed control at 62 g/ha [3, 14]: 35%
pest or weed control at 125 g/ha ([3]; Setaria faberi, post-emergence, Foxtail, Giant, Postemergence, 125 g ai/ha, read-out: Plant response rating): 65%
pest or weed control at 250 g/ha ([3]; Setaria faberi, post-emergence, Foxtail, Giant, Postemergence, 250 g ai/ha, read-out: Plant response rating): 85%
Plant response rating ([4]; 31 g ai/ha): 75
Plant response rating ([4]; 62 g ai/ha): 90
Plant response rating ([4]; 125 g ai/ha): 95
Plant response rating ([4]; 250 g ai/ha): 95
pest or weed control at 31 g/ha [5, 15]: 5%
pest or weed control at 62 g/ha [5, 15]: 5%
pest or weed control at 125 g/ha ([5]; Cyperus, post-emergence, Nutsedge, Yellow, Postemergence, 125 g ai/ha, read-out: Plant response rating): 5%
pest or weed control at 250 g/ha ([5]; Cyperus, post-emergence, Nutsedge, Yellow, Postemergence, 250 g ai/ha, read-out: Plant response rating): 15%
Plant response rating ([6]; Postemergence, 31 g ai/ha): 85
Plant response rating ([6]; Postemergence, 62 g ai/ha): 85
Plant response rating ([6]; Postemergence, 125 g ai/ha): 95
Plant response rating ([6]; Postemergence, 250 g ai/ha): 95
pest or weed control at 31 g/ha [7, 16]: 85%
pest or weed control at 62 g/ha [7, 16]: 95%
pest or weed control at 125 g/ha ([7]; Amaranthus retroflexus, post-emergence, Pigweed, Postemergence, 125 g ai/ha, read-out: Plant response rating): 95%
pest or weed control at 250 g/ha ([7]; Amaranthus retroflexus, post-emergence, Pigweed, Postemergence, 250 g ai/ha, read-out: Plant response rating): 95%
pest or weed control at 31 g/ha [8, 17]: 5%
pest or weed control at 62 g/ha [8, 17]: 10%
pest or weed control at 125 g/ha ([8]; Lolium multiflorum, post-emergence, Ryegrass, Italian, Postemergence, 125 g ai/ha, read-out: Plant response rating): 15%
pest or weed control at 250 g/ha ([8]; Lolium multiflorum, post-emergence, Ryegrass, Italian, Postemergence, 250 g ai/ha, read-out: Plant response rating): 35%
plant injury at 31 g/ha (soybean (Glycine max); Glycine max, post-emergence, Soybean, Postemergence, 31 g ai/ha, read-out: Plant response rating): 35%
plant injury at 62 g/ha (soybean (Glycine max); Glycine max, post-emergence, Soybean, Postemergence, read-out: Plant response rating): 50%
plant injury at 125 g/ha (soybean (Glycine max); Glycine max, post-emergence, Soybean, Postemergence, 125 g ai/ha, read-out: Plant response rating): 50%
plant injury at 250 g/ha (soybean (Glycine max); Glycine max, post-emergence, Soybean, Postemergence, 250 g ai/ha, read-out: Plant response rating): 65%
pest or weed control at 31 g/ha ([9]; Abutilon theophrasti, post-emergence, Velvetleaf, Postemergence, 31 g ai/ha, read-out: Plant response rating): 45%
pest or weed control at 62 g/ha ([9]; Abutilon theophrasti, post-emergence, Velvetleaf, Postemergence, read-out: Plant response rating): 45%
pest or weed control at 125 g/ha ([9]; Abutilon theophrasti, post-emergence, Velvetleaf, Postemergence, 125 g ai/ha, read-out: Plant response rating): 55%
pest or weed control at 250 g/ha ([9]; Abutilon theophrasti, post-emergence, Velvetleaf, Postemergence, 250 g ai/ha, read-out: Plant response rating): 95%

CCOc1cc(=O)n(-c2ccc(F)cc2)nc1C(O)c1ccnc(C(F)(F)F)c1 (centres unmarked) [Compound 23, 5-ethoxy-2-(4-fluorophenyl)-6-[hydroxy[2-(trifluoromethyl)-4-pyridinyl]methyl]-3(2H)-pyridazinone]
pest or weed control at 31 g/ha [1, 18]: 50%
pest or weed control at 62 g/ha [1, 18]: 5%
Plant response rating, Blackgrass ([1]; Preemergence, 8 g ai/ha): 0
Plant response rating, Blackgrass ([1]; Preemergence, 16 g ai/ha): 0
Plant response rating, Corn (corn (Zea mays); Preemergence, 8 g ai/ha): 0
Plant response rating, Corn (corn (Zea mays); Preemergence, 16 g ai/ha): 5
plant injury at 31 g/ha (corn (Zea mays); [19]): 5%
plant injury at 62 g/ha (corn (Zea mays); [19]): 15%
pest or weed control at 31 g/ha [2, 20]: 65%
pest or weed control at 62 g/ha [2, 20]: 100%
Plant response rating, Crabgrass, Large ([2]; Preemergence, 8 g ai/ha): 5
Plant response rating, Crabgrass, Large ([2]; Preemergence, 16 g ai/ha): 50
Plant response rating, Foxtail, Giant ([3]; Preemergence, 8 g ai/ha): 5
Plant response rating, Foxtail, Giant ([3]; Preemergence, 16 g ai/ha): 55
pest or weed control at 31 g/ha [3, 21]: 75%
pest or weed control at 62 g/ha [3, 21]: 90%
Plant response rating ([10]; 31 g ai/ha): 55
Plant response rating ([10]; 62 g ai/ha): 98
Plant response rating, Morningglory ([10]; 8 g ai/ha): 10
Plant response rating, Morningglory ([10]; 16 g ai/ha): 20
pest or weed control at 31 g/ha [5, 22]: 0%
pest or weed control at 62 g/ha [5, 22]: 0%
Plant response rating, Nutsedge, Yellow ([5]; Preemergence, 8 g ai/ha): 0
Plant response rating, Nutsedge, Yellow ([5]; Preemergence, 16 g ai/ha): 0
Plant response rating ([6]; Preemergence, 31 g ai/ha): 80
Plant response rating ([6]; Preemergence, 62 g ai/ha): 85
Plant response rating, Oilseed Rape ([6]; Preemergence, 8 g ai/ha): 5
Plant response rating, Oilseed Rape ([6]; Preemergence, 16 g ai/ha): 5
pest or weed control at 31 g/ha [7, 23]: 100%
pest or weed control at 62 g/ha [7, 23]: 100%
Plant response rating, Pigweed ([7]; Preemergence, 8 g ai/ha): 98
Plant response rating, Pigweed ([7]; Preemergence, 16 g ai/ha): 100
pest or weed control at 31 g/ha [8, 24]: 0%
pest or weed control at 62 g/ha [8, 24]: 5%
Plant response rating, Ryegrass, Italian ([8]; Preemergence, 8 g ai/ha): 0
Plant response rating, Ryegrass, Italian ([8]; Preemergence, 16 g ai/ha): 0
plant injury at 62 g/ha (soybean (Glycine max); Glycine max, pre-emergence, Soybean, Preemergence, read-out: Plant response rating): 25%
Plant response rating, Soybean (soybean (Glycine max); Preemergence, 8 g ai/ha): 0
Plant response rating, Soybean (soybean (Glycine max); Preemergence, 16 g ai/ha): 0
pest or weed control at 62 g/ha ([9]; Abutilon theophrasti, pre-emergence, Velvetleaf, Preemergence, read-out: Plant response rating): 100%
Plant response rating, Velvetleaf ([9]; Preemergence, 8 g ai/ha): 0
Plant response rating, Velvetleaf ([9]; Preemergence, 16 g ai/ha): 15
